The results in this text go back to PMC6155315, “Enantiomeric Aβ peptides inhibit the fluid shear stress response of PIEZO1” (Scientific Reports, 2018).

“And” between values parts separate entries of the source, which are not always exact repeats. Equal entries are not always repeated. Positions of bridges follow the written chain, without caps; N, C: chain ends. Residues, ends and D or L forms follow the SMILES beside them.

The target of one test is T1, hPIEZO1 (Homo sapiens, UniProt Q92508).
T1 construct: expressed in transfected cells
T1 sequence (Q92508 whole entry): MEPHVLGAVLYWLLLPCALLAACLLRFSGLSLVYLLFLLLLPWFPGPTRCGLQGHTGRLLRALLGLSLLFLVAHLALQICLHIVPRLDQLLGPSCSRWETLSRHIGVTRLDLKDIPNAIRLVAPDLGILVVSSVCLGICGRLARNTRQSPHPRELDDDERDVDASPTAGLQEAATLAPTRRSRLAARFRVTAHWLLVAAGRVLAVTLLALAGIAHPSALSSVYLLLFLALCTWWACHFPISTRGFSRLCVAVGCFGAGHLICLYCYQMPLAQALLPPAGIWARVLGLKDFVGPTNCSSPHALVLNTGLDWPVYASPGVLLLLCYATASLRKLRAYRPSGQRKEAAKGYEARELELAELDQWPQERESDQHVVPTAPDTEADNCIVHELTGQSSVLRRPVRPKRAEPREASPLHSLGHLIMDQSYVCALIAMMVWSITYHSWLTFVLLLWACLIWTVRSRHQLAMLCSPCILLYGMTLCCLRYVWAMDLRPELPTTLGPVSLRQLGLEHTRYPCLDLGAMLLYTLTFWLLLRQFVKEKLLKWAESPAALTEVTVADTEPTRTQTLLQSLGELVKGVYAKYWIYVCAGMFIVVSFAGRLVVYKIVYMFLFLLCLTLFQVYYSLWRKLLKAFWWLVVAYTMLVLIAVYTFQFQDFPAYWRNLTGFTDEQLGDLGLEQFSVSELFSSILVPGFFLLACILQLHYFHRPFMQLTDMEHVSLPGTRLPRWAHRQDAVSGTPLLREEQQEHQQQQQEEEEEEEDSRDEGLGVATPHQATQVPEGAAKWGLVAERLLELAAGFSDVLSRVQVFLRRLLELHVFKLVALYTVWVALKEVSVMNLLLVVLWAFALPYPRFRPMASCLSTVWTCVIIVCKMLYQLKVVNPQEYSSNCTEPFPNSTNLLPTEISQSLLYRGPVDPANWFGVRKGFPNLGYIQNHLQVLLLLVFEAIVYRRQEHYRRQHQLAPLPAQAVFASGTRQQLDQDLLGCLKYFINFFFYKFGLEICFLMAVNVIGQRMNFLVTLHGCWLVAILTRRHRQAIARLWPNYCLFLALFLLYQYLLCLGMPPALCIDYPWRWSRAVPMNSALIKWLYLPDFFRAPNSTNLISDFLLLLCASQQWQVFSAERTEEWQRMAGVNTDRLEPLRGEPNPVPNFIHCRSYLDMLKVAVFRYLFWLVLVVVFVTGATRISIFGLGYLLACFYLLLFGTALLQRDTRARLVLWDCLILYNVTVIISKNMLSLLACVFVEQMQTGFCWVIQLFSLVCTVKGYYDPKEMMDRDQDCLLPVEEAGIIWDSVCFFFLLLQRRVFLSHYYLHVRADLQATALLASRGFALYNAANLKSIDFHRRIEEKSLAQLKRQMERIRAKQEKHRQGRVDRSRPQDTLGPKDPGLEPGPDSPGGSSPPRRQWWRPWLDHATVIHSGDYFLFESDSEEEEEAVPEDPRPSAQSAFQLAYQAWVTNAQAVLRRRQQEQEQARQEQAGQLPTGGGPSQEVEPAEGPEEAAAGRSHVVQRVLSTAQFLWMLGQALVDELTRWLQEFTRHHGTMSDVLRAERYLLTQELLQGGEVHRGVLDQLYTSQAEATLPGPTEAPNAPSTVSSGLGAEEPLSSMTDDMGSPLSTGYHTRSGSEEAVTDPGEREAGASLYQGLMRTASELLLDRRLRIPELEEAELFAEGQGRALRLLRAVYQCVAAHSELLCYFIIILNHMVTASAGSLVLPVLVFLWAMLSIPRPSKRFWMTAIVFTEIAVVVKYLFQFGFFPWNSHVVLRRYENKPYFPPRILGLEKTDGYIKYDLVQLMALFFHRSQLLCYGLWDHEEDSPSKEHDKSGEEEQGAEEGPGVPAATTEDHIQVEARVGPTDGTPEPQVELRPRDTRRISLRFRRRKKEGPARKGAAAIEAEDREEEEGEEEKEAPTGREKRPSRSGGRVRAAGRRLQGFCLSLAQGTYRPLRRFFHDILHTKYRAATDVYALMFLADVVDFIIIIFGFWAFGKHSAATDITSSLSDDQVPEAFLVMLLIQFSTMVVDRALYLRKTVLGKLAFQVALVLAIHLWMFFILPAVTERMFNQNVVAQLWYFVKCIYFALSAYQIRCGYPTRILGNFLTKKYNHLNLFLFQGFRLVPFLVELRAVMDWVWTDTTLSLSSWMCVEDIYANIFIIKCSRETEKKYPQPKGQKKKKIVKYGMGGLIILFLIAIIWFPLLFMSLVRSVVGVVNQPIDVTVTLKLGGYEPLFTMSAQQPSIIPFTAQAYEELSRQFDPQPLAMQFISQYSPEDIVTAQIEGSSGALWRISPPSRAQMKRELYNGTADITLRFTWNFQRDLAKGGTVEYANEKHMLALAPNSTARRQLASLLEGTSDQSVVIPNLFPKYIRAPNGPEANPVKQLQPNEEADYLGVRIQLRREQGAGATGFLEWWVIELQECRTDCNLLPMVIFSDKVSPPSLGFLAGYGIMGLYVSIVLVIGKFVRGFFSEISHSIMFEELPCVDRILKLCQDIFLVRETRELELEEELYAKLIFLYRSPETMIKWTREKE
Put plainly: Fluid shear stress assay: shear-induced [Ca2+]i increase (Fluo-4 AM) in hP1-CL cells. Particulars: for Effect on fluid shear [Ca2+]i response: hP1-CL cells; for Shear response of hP1-CL cells after cytoskeletal disruption: concentration not given. The test is classed as cell-based. Here is the method: We first created a cell line that expressed a fluorescently tagged version of human PIEZO1 called hPIEZO1-1591-EGFP[5]. […] The cDNA was integrated into the genome of HEK293T cells using a lentivirus vector.
The microfluidic chambers had glass coverslip bottoms coated with human fibronectin (Invitrogen)[20] and fluid flow guided by PDMS channels. Cells were cultured in the chamber for 3 days, with daily medium changes. On the experimental day, chambers were rinsed with isotonic solution (75 mM NaCl, 5 mM KCl, 2 mM MgCl2, 1 mM CaCl2 and 10 mM HEPES, adjusted to 320 mOsm with mannitol). A stock of Fluo-4 AM was diluted to 5 µM in isotonic saline and incubated with cells for 10–30 min at 37C°. Chambers were then rinsed twice with isotonic solution and incubated for 8 minutes to complete Fluo-4 AM de-esterification. A single fluid shear stress pulse of ~15 dynes/cm^2 for 8–10 ms was applied to the chamber using a high-speed pressure servo (HSPC-1 from ALA). Peptide stocks were kept at 4 °C until used, dissolved to desired concentrations, and immediately added to cells.
Images of the cellular response to shear stress were captured by an EM-CCD camera (C9100 model, Hamamatsu) at a nominal rate of 1 Hz. To quantify the response, the average intensity in the field of view was background subtracted. Image intensity was adjusted for the rate of bleaching. Each condition was repeated in four separate chambers, and the results averaged. The responses were normalized to the control experiments, and the inhibition was calculated as previously described. The data points were fit by a Hill plot with the equation:1 y=Vmax⁎x^n/(k^n+x^n) where Vmax is the maximum response, n is the Hill coefficient, and k is related to the concentration at half-maximal response.

A further test relates to PIEZO1 channels. The class given is cell-based, human. To be noted: 5 µM perfused, 50 mV, 60 mmHg pulses; 3 independent experiments.
The test system of the next test is hP1-CL cells. Put plainly: Cell migration (wound healing) assay with peel-off PDMS barrier. To be noted: 5 µM. The test is classed as cell-based, human. The procedure:
PIEZO1 channels are involved in neurite extension[16] and other types of cell motility. This led us to test the effects of Aβ peptides on hP1-CL motility in a wound healing assay. Cells were grown to confluence on glass coverslips half-coated with PDMS (Polydimethylsiloxane). The PDMS layer was then peeled off allowing us to accurately measure the collective cell migration rates across the newly exposed glass surface.
Figure 3 Aβ peptides inhibit migration of hP1-CL cells. Cell migration was measured as cell movement on glass cover slips in polystyrene dishes at 37 °C and 5% CO2. A PDMS barrier to cell growth was created on the cover slip. When cells reached confluency, the barrier was peeled off. Images of the resulting, initially sharp confluent cell boundary were captured at 0.003 Hz over 5 hours. […] Bottom left panel summarizes the mean cell migration distances as a function of time. […] Three independent experiments were averaged (SEM).
Half of a glass coverslip was coated with catalyzed PDMS (polydimethylsiloxane) (9:1) and allowed to harden. Cells were cultured on the complete coverslip kept in tissue culture dishes. After achieving confluency, the PDMS was peeled from the glass. The location of the front edge of the confluent cells was monitored for 5 hr at 37 C° with 5% CO2-supplemented DMEM media containing 10% bovine serum. […]

The next test has as its system hP1-mCherry-CL cells. Put plainly: Actin stress, cpst-FRET actin force probe, in PIEZO1-overexpressing cells. The class given is cell-based, human. To be noted: for Effect on actin stress: 37 °C, 15 cells from 3 experiments. The source says: Cell movement in the presence of PIEZO1 channels appears to rely on cytoskeletal integrity and plasticity, consistent with the ability of cytoskeletal disrupting agents to prevent PIEZO1 activation (Supplementary Fig. 4A). We examined forces within the cytoskeleton during channel inhibition. By transient transfection, we introduced a genetically encoded optical probe of actin stress (cpst-FRET) into stable hP1-mCherry-CL cells[19] (Fig. 4A), resulting in probe expression into F-actin. […] For each experiments described below, we analyzed and averaged (with SD) 15 cells from 3 different experiments. […] 10 pM of monomerized scrambled Aβ peptide (black squares) also had no effect on actin stress.
Figure 4 D-GsMTx4 and the enantiomeric Aβ(1-40) peptides inhibit Ca^2+ entry, and increase cytoskeleton stress in hP1-mCherry-CL cells. hP1-mCherry-CL cells were transiently transfected with cDNA encoding the actin force probe to monitor peptide-induced changes to the cell’s cytoskeleton. […] Each data point is the average of 15 cells from 3 different experiments (with SD). A baseline response is established in the first 30 minutes (37 °C and 5% CO2). Addition (green bar) of D-GsMTx4 (5 uM, black squares) or monomeric enantiomeric Aβ(1-40) peptides (10 pM; L, red circles; D, blue triangles) elicits immediate increases in actin stress. […] Bath removal of extracellular Ca^2+ elicits the largest effect (40%, blue triangles). Data points are 15 cells from 3 independent experiments with SD. Panel D summarizes Aβ responses at the 60 min time point (paired t-test). […] Before and after intensities were analyzed by paired t-test ([…]). […]
(§1) To measure cytoskeletal stress, hP1-mCherry-CL cells were transiently transfected with cDNA encoding the cpst-actin FRET probe. The FRET ratio of […] was measured by simultaneous imaging using an image splitter. Baseline actin stress was measured at 37 °C in isotonic solution for 30 min before peptide addition (see above).

A further test has as its system HEK293T cells. Put plainly: Actin stress, actin force probe, in unmodified control cells. The test is classed as cell-based. The procedure: (Panel A) HEK293T cells were monitored for 30 min to establish a baseline.
as §1

Method for PIEZO1 channels: We examined whether the Aβ could inhibit PIEZO1 currents in the patch. We formed outside/out patches from the hP1 cell line and tested whether 10 µM of Aβ (1-40) or Aβ (1-42) (Peptide Method I) inhibited channel activity, a concentration that blocked the shear response.
Cell-attached and outside-out patches were used as previously described[47]. All experiments were at room temperature. Pressure or suction steps were applied to the membranes using a high speed pressure clamp (ALA)[48]. The bath solution contained (in mM): 150 KCl, 10 HEPES, 1 MgCl2, 1 CaCl2 at pH 7.4 that clamped the resting membrane potential to zero. The pipette solution was 150 mM KCl at pH 7.4.
Shown above are typical results from single patches. Left- a positive pressure pulse of 60 mmHg at 50 mV lasting 500 msec was applied to an O/O patch every 2 seconds. After 12 pulses (24 seconds, black trace is the average of 12 pulses), 10 µM of L Aβ(1-40) was applied by perfusion and activity was monitored for 30 seconds (red trace is the average of 15 pulses). […] Center- The effect of Aβ(1-42) on a different patch (identical conditions described above). 12 pressure pulses (black trace) established a baseline response. […] 6 pressure pulses (50 mV, 60 mmHg) were applied to establish the baseline response (black). […]

Broadly, the Hill coefficient is a measure of the steepness of the concentration-response curve. With `CC(C)C[C@@H]1NC(=O)[C@@H](NC(=O)CN)CSSC[C@@H]2NC(=O)[C@@H]3CSSC[C@@H](C(=O)N[C@@H](CC(N)=O)C(=O)N[C@@H](Cc4ccccc4)C(=O)N[C@@H](CO)C(=O)N[C@@H](Cc4ccccc4)C(N)=O)NC(=O)[C@H](CC(C)C)NC(=O)[C@H](CCCCN)NC(=O)[C@H](Cc4ccccc4)NC(=O)[C@H](CC(C)C)NC(=O)[C@H](CCCCN)NC(=O)[C@H](CO)NC(=O)[C@H](CSSC[C@H](NC(=O)[C@H](CCCCN)NC(=O)[C@H](Cc4c[nH]c5ccccc45)NC(=O)[C@H](Cc4c[nH]c5ccccc45)NC(=O)[C@H](Cc4ccccc4)NC(=O)[C@H](CCC(=O)O)NC1=O)C(=O)N[C@@H](CC(N)=O)C(=O)N1CCC[C@H]1C(=O)N[C@@H](CC(N)=O)C(=O)N[C@@H](CC(=O)O)C(=O)N[C@@H](CC(=O)O)C(=O)N[C@@H](CCCCN)C(=O)N3)NC(=O)[C@H](CCCCN)NC(=O)[C@H](CC(C)C)NC(=O)[C@H](CCCCN)NC(=O)[C@@H]1CCCN1C(=O)[C@H](CCCNC(=N)N)NC2=O` [GsMTx4] (H-GCLEFWWKCNPNDDKCCRPKLKCSKLFKLCNFSF-NH2; disulfide 2-17, 9-23, 16-30; N-terminus and C-terminus assumed), the “Effect on fluid shear [Ca2+]i response” value at hPIEZO1 (5 µM, Supplementary Fig. 3A) was “inhibited the shear stress response”. Further, the “Reversibility of channel inhibition on washout” value on hPIEZO1 (shear stress assay, Aβ: within 20 min or with shear stress raised to 25 dynes/cm2) is on record as “readily restored”. For the same molecule, the “Hill coefficient” value at hPIEZO1 (titration of shear stress response of hP1-CL cells) was 1.9 and ~ 1.9. Moreover, in the test on PIEZO1 channels, the “Inhibition of PIEZO1 outside/out patch current” value is recorded as 0.67 ± 0.07.
As for D-GsMTx4, the “Effect on hP1-CL cell migration” value with hP1-CL cells is “blocked”. For the same molecule, the “Slowing of cell migration” value in the test with hP1-CL cells (hP1-CL cells, 5 hr, 37 °C, 3 independent experiments) was “over 10 fold”. For the same molecule, the “Effect on fluid shear [Ca2+]i response” value at hPIEZO1 (5 µM, Supplementary Fig. 3A) is reported as “complete inhibition”. The “Effect on actin stress” value with hP1-mCherry-CL cells (5 µM added after 30 min baseline) is “increase in actin stress”. Besides, the “Effect on F-actin in lamellipodia” value in the test on hP1-mCherry-CL cells (actin force probe images, Fig. 4E,F, 20 lamellipodia from 4 cells) is “drop of F-actin tension and its retraction from the lamellipodia”. Besides, the “Effect on actin stress in HEK293T cells” value with HEK293T cells (5 µM, 15 cells from 3 experiments) was “no effect”.
As to “HiLyte Aβ(1-42): L-Aβ(1-42) fluorescently labeled at the N-terminus with HiLyte (555), purchased (Anaspec) and monomerized”, the “Effect on shear stress response of the hPIEZO1 cell line” value in the test with hPIEZO1 (5 pM and 100 pM monomerized peptide, 4 independent experiments) is listed as “inhibited”. Moreover, in the test with hPIEZO1 (100 pM monomerized peptide, 4 independent experiments), the “Effect on PIEZO1-mediated Ca2+ response to shear stress” value is listed as “completely inhibited”.
For “AEGDSHVLKEGAYMEIFDVQGHVFGGKIFRVVDLGSHNVA [scrambled L-Aβ(1-40), scrambled Aβ(1-40) peptide purchased from Anaspec, used as control]”, the “Effect on fluid shear [Ca2+]i response” value at hPIEZO1 (10 µM peptide, 4 independent experiments) was “lack of PIEZO1 inhibition”. The “Effect on actin stress” value in the test with hP1-mCherry-CL cells (10 pM monomeric peptide added after 30 min baseline) is “no effect”. Besides, the “Effect on actin stress probe FRET in HEK293T cells” value in the test with HEK293T cells (concentration not given, after 30 min baseline) is recorded as “no change”.
On to `C=C1[C@@H](C)[C@H]2[C@H](Cc3ccccc3)NC(=O)[C@]23[C@H](OC(C)=O)/C=C/[C@@](C)(O)C(=O)[C@@H](C)C/C=C/[C@H]3[C@@H]1O` [cytochalasin D], for which the “Shear response of hP1-CL cells after cytoskeletal disruption” value on hPIEZO1 (Supplementary Fig. 3A) is “unresponsive to fluid shear”.
The same measure, in the same setting: in the case of `COc1cc2c(c(OC)c1OC)-c1ccc(OC)c(=O)cc1[C@@H](NC(C)=O)CC2` [colchicine] it was “unresponsive to fluid shear”.
